Test results published in US20140030201A1, “A SKIN LIGHTENING COMPOSITION” (priority 2010, published 2014).
“And” between values parts separate entries of the source, which are not always exact repeats. Identical values can stand only once. Like-named read-outs stand apart in the source and are kept apart here.

Legend:
B16 mouse melanoma cells = assay: Melanogenesis in B16 monolayer cultures (melanin normalised to total protein); format: cell-based; conditions: for Normalised melanin: 72 hours; for Inhibition of melanin production (in words): B16 monolayer cultures
Method: B16 mouse melanoma cells were cultured in Eagle's minimal essential medium (EMEM) supplemented with 10% foetal calf serum (FCS) and 2 mM L-glutamine at 37° C., 5% CO2 in T175 tissue culture flasks and were sub-cultured twice weekly using trypsin in EDTA. For assay, 25 000 cells per well in 500 μl volume were seeded to a 48 well plate and adhered overnight. The following morning standard culture media was replaced by EMEM, 10% FCS, 4 mM L-glutamine (500 μl) and test actives added. Cells were then incubated for 72 hours. At 72 after which the supernatants were removed and analysed for melanin content by spectrophometry at 450 nm against a reference standard curve. The B16 cell monolayer was dissolved in Triton™/PBS at 4° C. for 20 minutes, centrifuged at 13 000 rpm for 5 minutes at 4° C. and analysed for total protein content using a standard bicinchoninic acid assay (BCA) assay against a reference standard curve. Melanin results were normalised to total protein.
Each test active was applied in DMSO to n=3 cultures.

[1] = test system: B16 F10 cells (mouse melanoma cell line); conditions: 3 days; for Average μg melanin/cell (4 tests): media control 0.00030445, DMSO control 0.00028774; for % vehicle control (melanin per cell): media control 100, DMSO control 94.51056836
Method: B16 F10 cells (mouse melanoma cell line) were obtained from ATCC and grown in Lonza Biowhittaker BE12-662F media. Trypsin in ethylenediaminetetraacetic acid (EDTA) (Sigma T3924) and Dulbecco's Phosphate Buffered Saline (DPBS) (Sigma D8537) were used to split the cells. Plates were set up at a concentration of 2.5×10^4 cells per well in 48 well plates in Phenol Red free media (Sigma D1145).
After overnight incubation, media was removed and media with sulforaphane (available from Sigma-Aldrich Company Limited as at least 95% L-sulforaphane) in DMSO and ketoconazole in DMSO solutions were added. 500 μl of the media and solutions were added to 4 wells of a 48 well plate and the plates incubated at 37° C. for a further 3 days. Thereafter the melanin concentration and cell numbers were measured.
Melanin concentration was measured by making up standards each day and pipetting 100 μl of each standard in duplicate onto Greiner plates. For the blank plate Phenol Red free media was used. 100 μl from each well was also pipetted in duplicate onto Greiner plates and the plates read on a Dynex plate reader at 450 nm.
Cell numbers were measured by washing the wells twice with phosphated buffer solution (PBS). Then 1 ml of trypsin EDTA diluted in PBS at 1:10 v/v was added to each well and the wells observed for cell detachment. All media from each well was then collected the media assayed by adding 100 μl of the media to 9.9 ml of Coulter Isoton II diluent. Cell numbers were assessed using the Z1 Coulter Particle Counter.

B16 melanoma cells = conditions: cited from earlier work
[2] = In-vitro delivery of ketoconazole into human skin (diffusion cells, tape stripping); format: in vitro ADME
Method: This study quantified the in-vitro human skin penetration after application of a cream formulation containing 2% (w/w) ketoconazole (Daktarin™ Gold). Eight diffusion cells were prepared (using female abdominal skin from three donors) plus three undosed control cells (for assay validation purposes). Epidermal membranes were used and integrity assessed by measuring electrical resistance. Permeation of active was measured over 24 hours following application of a target 5 mg/cm2 dose. Suitable liquid chromatography analytical assays were developed, with active peaks separated from formulation, skin and tape strip derived peaks.
Distribution within the skin at 24 hours was determined by measuring the levels of active within the stratum corneum (tape strips) and the epidermis plus any remaining lower stratum corneum (following tape stripping). The skin was wiped prior to tape stripping to remove active remaining at the surface. Levels in the donor chamber sealing grease and on the donor chambers were also measured (donor chamber wash).

MelanoDerm™ cultures = assay: Histological analysis of MelanoDerm cultures (Masson-Fontana staining, MART-1 immuno-staining); conditions: 1 μM, 14 days, versus DMSO control
[3] = test system: MelanoDerm™ cultures (pigmented 3D-Living Skin Equivalent model); assay: Melanogenesis in MelanoDerm cultures (extracted melanin normalised to protein)
[4] = test system: normal human melanocytes (NHM); assay: Growth and morphology of normal human melanocytes in monolayer culture (light microscopy); format: cell-based; conditions: 1 μM
Method: Primary human melanocytes were obtained from Invitrogen Cascade Biologics (HEMn-DP) and grown in Cascade melanocyte media (M-254CF-500+human melanocyte growth supplement (HMGS) supplement containing phorbol myristate acetate (PMA)) according to the manufacturer's instructions. Once established, cultures were routinely grown in T175 tissue culture flasks and could generally be passaged for use up to six (P6) or seven (P7) times. Once the cells reached about 70% confluence they were treated with trypsin, spun down and re-suspended in an appropriate volume of media ready for plating out. Cells seeded at 2×10^5 cells per well in a 6-well plate and incubated in 2 ml medium per well. Cells were allowed 16 hours to settle on the cover-slips before addition of treatments. Cells were treated for 5 days with DMSO vehicle or test actives dissolved in DMSO and light microscope images captured.
NHMs grown in monolayer cultures were treated with 1 μM ketoconazole for 5 days and assessed by light microscopy.

[5] = 20 μM, individual cultures, second DMSO control 0.187, 0.188, 0.172
[6] = cream with 2% (w/w) ketoconazole (Daktarin Gold), 5 mg/cm2, 24 hours, n = 8
[7] = stratum corneum tape strips, cream with 2% (w/w) ketoconazole, 5 mg/cm2, 24 hours, n = 8

c1c[nH]cn1 [imidazole]
Normalised melanin (B16 mouse melanoma cells; [5]): 0.180 μg/mg protein and 0.231 μg/mg protein and 0.240 μg/mg protein
Inhibition of melanin production (in words) (B16 mouse melanoma cells; other azoles): did not effectively inhibit melanin production

c1cscn1 [thiazole]
Normalised melanin (B16 mouse melanoma cells; [5]): 0.228 μg/mg protein and 0.255 μg/mg protein and 0.236 μg/mg protein
Inhibition of melanin production (in words) (B16 mouse melanoma cells; other azoles): did not effectively inhibit melanin production

C[S+]([O-])CCCCN=C=S [L-sulforaphane, sulforaphane]
Average μg melanin/cell (4 tests) ([1]; 10 μM): 0.0002645 μg melanin/cell
% vehicle control (melanin per cell) ([1]; 10 μM): 86.89 % vehicle control

Clc1ccc(COC(Cn2ccnc2)c2ccc(Cl)cc2Cl)c(Cl)c1 (centres unmarked) [miconazole]
Cellular viability (B16 melanoma cells; accompanying the melanin decrease): decreased cellular viability
Melanin content (B16 melanoma cells; compared with untreated cells): dose dependently decreased
Tyrosinase activity (B16 melanoma cells; compared with untreated cells): dose dependently decreased

c1cocn1 [oxazole]
Normalised melanin (B16 mouse melanoma cells; [5]): 0.217 μg/mg protein and 0.210 μg/mg protein and 0.185 μg/mg protein
Inhibition of melanin production (in words) (B16 mouse melanoma cells; other azoles): did not effectively inhibit melanin production

CC(=O)N1CCN(c2ccc(OC[C@H]3CO[C@](Cn4ccnc4)(c4ccc(Cl)cc4Cl)O3)cc2)CC1 (racemic) [ketoconazole]
Normalised melanin (B16 mouse melanoma cells; 5 μM, n=3 cultures, first DMSO control 0.186 ± 0.021): 0.173 ± 0.032 μg/mg protein
Normalised melanin (B16 mouse melanoma cells; 20 μM, n=3 cultures, first DMSO control 0.186 ± 0.021): 0.004 ± 0.001 μg/mg protein
Normalised melanin (B16 mouse melanoma cells; 50 μM, n=3 cultures, first DMSO control 0.186 ± 0.021): 0.007 ± 0.003 μg/mg protein
Inhibition of melanin production (in words) (B16 mouse melanoma cells; at 1 μM as printed): very effectively inhibits melanin production
Ketoconazole (% recovered), Donor chamber [2, 6]: 4.00 ± 1.26 % recovered
Ketoconazole (% recovered), Overall recovery [2, 6]: 99.4 ± 1.2 % recovered
Ketoconazole (% recovered), Permeation chamber [2, 6]: 3.49 ± 0.26 % recovered
Ketoconazole (% recovered), Surface of skin [2, 6]: 83.6 ± 2.4 % recovered
Delivery into human skin (in words) ([2]; cream with 2% (w/w) ketoconazole, 24 hours): low but adequate delivery into human skin
Ketoconazole (% recovered), Epidermis ([2]; includes any stratum corneum remaining after tape stripping, cream with 2% (w/w) ketoconazole, 5 mg/cm2, 24 hours, n = 8): 2.02 ± 0.74 % recovered
Ketoconazole (% recovered), Strip 1 ([2]; stratum corneum tape strip, cream with 2% (w/w) ketoconazole, 5 mg/cm2, 24 hours, n = 8): 4.92 ± 2.03 % recovered
Ketoconazole (% recovered), Strips 2-3 [2, 7]: 0.858 ± 0.255 % recovered
Ketoconazole (% recovered), Strips 4-6 [2, 7]: 0.318 ± 0.062 % recovered
Ketoconazole (% recovered), Strips 7-10 [2, 7]: 0.192 ± 0.046 % recovered
Melanin content of the basal melanocytes, Masson-Fontana staining (MelanoDerm™ cultures; FIG. 1): marked effect on the melanin content of the basal melanocytes
Presence of melanocytes, MART-1 immuno-staining (MelanoDerm™ cultures; FIG. 2): not due to the elimination of melanocytes
Effect on viability of epidermal cultures ([3]; 1 μM): no detectable effect on the viability
Normalised melanin ([3]; 1 μM, 14 days, individual cultures, DMSO control 74.560, 103.845, 90.333): 58.573 μg/mg protein and 59.276 μg/mg protein and 57.292 μg/mg protein
Levels of extractable melanin (in words) ([3]; 1 μM, 14 days, versus DMSO control): consistently reduced the levels of extractable melanin
Inhibition of melanin production (in words) ([3]; MelanoDerm cultures, at 1 μM): very effectively inhibits melanin production
Effect on viability of monolayer human melanocytes [4]: no detectable effect on the viability
Effect on NHM morphology or proliferation ([4]; 5 days, light microscopy, FIG. 3): no evidence that treatment had an adverse effect on NHM morphology or proliferation
Proportion of bipolar cells (normal cells) ([4]; 5 days, versus control, FIG. 3): practically identical to the control
Average μg melanin/cell (4 tests) ([1]; 1 μM): 0.0002916 μg melanin/cell
% vehicle control (melanin per cell) ([1]; 1 μM): 95.76 % vehicle control

OC(Cn1cncn1)(Cn1cncn1)c1ccc(F)cc1F [flucoazole, fluconazole]
Normalised melanin (B16 mouse melanoma cells; [5]): 0.232 μg/mg protein and 0.214 μg/mg protein and 0.229 μg/mg protein
Inhibition of melanin production (in words) (B16 mouse melanoma cells; other azoles): did not effectively inhibit melanin production
